According to patent US20160106102A1, “KNOWN AND NEW HETEROCYCLIC COMPOUNDS AS PEST CONTROL AGENTS” (BAYER CROPSCIENCE AKTIENGESELLSCHAFT, priority 2013, published 2016):

Test system: Myzus persicae
Assay: Myzus persicae - sachet test
Type: in vivo
Details: Myzus persicae; application rate of 6 ppm in nutrient medium; 100% = all animals killed; read-out: efficacy (kill in %)
Outline: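 Active ingredient dissolved with 2% N-methylpyrrolidone and 2% diacetone alcohol, diluted in water, then pipetted into nutrient medium. Plate sealed and paired with a plate carrying green peach aphids. Kill in % scored after the set time (100% = all dead, 0% = none dead).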

| SMILES | pest or weed control at 6 ppm [%] |
| --- | --- |
| CC(NC(=O)Cn1nnc(NC(=O)c2cccnc2)n1)c1ccccc1 (stereo not shown) [Compound I-4-6, N-(2-{2-Oxo-2-[(1-phenylethyl)amino]ethyl}-2H-tetrazol-5-yl)nicotinamide] | 100 |
| Cc1nn(-c2ccccn2)nc1NC(=O)c1cccnc1 [Compound I-3-1, N-[5-Methyl-2-(pyridin-2-yl)-2H-1,2,3-triazol-4-yl]nicotinamide] | 100 |

Same assay, conditions: Myzus persicae; application rate of 30 ppm in nutrient medium; 100% = all animals killed; read-out: efficacy (kill in %)

| SMILES | pest or weed control at 30 ppm [%] |
| --- | --- |
| CC(NC(=O)Cn1nnc(NC(=O)c2cccnc2)n1)c1ccccc1 (stereo not shown) [Compound I-4-6, N-(2-{2-Oxo-2-[(1-phenylethyl)amino]ethyl}-2H-tetrazol-5-yl)nicotinamide] | 100 |
| Cc1nn(-c2ccccn2)nc1NC(=O)c1cccnc1 [Compound I-3-1, N-[5-Methyl-2-(pyridin-2-yl)-2H-1,2,3-triazol-4-yl]nicotinamide] | 100 |
| Cc1cn(Cc2ncccn2)nc1NC(=O)c1cccnc1 [Compound I-1-136, N-[4-Methyl-1-(pyrimidin-2-ylmethyl)-1H-pyrazol-3-yl]nicotinamide] | 100 |

Same assay, conditions: application rate of 6 ppm in nutrient medium; 100% = all animals killed

| SMILES | efficacy (kill in %) [%] |
| --- | --- |
| Cc1cc(NC(=O)c2cccnc2)nn1-c1ccc(Cl)cc1 [Compound I-1-209] | 80 |
| Cc1cc(C)nc(-n2nc(NC(=O)c3cccnc3)cc2C)n1 [Compound I-1-139] | 100 |
| Cc1cc(NC(=O)c2cccnc2)nn1S(=O)(=O)c1cccnc1 [Compound I-1-280] | 80 |
| CCN(CC)C(=O)n1nc(NC(=O)c2cccnc2)cc1C [Compound I-1-290] | 100 |
| Cc1cc(NC(=O)c2cccnc2)nn1Cc1nc2cc(Cl)ccc2o1 [Compound I-1-340] | 100 |
| Cc1nc2c(c(NC(=O)c3cncc(F)c3)nn2C)c(C)c1C [Compound I-1-57] | 100 |
| Cc1cc(NC(=O)c2cccnc2)nn1Cc1ccc(Cl)nc1 [Compound I-1-21] | 100 |
| Cc1cc(NC(=O)c2cccnc2)nn1C(=O)NCc1ncccn1 [Compound I-1-334] | 100 |
| Cc1cc(NC(=O)c2cccnc2)nn1C(=O)NC(C)C(F)(F)F (stereo not shown) [Compound I-1-307] | 100 |
| Cc1ccc(C(=O)Nc2cc(C)n(Cc3ccccc3)n2)cn1 [Compound I-1-80] | 80 |
| Cc1noc(Cn2nc(NC(=O)c3cccnc3)cc2C)n1 [Compound I-1-284] | 100 |
| Cc1cc(NC(=O)c2cccnc2)nn1CS(=O)(=O)c1ncccn1 [Compound I-1-236] | 100 |
| Cc1cc(NC(=O)c2cccnc2)nn1CC(=O)Cc1ccccc1Cl [Compound I-1-247] | 100 |
| Cc1cc(NC(=O)c2cccnc2)nn1C(C)(C)C#N [Compound I-1-219] | 100 |
| Cc1cc(NC(=O)c2cccnc2)nn1Cc1ncccc1Cl [Compound I-1-37] | 100 |
| Cc1cc(NC(=O)c2cccnc2)nn1Cc1ccc2ccccc2n1 [Compound I-1-341] | 100 |
| Cc1cc(NC(=O)c2cccnc2)nn1S(=O)(=O)N1CCC(C)CC1 [Compound I-1-162] | 100 |
| Cc1cc(NC(=O)c2cccnc2)nn1C(=O)NCc1ccc(Cl)cc1 [Compound I-1-325] | 100 |
| CSCn1nc(NC(=O)c2cccnc2)cc1C [Compound I-1-241] | 100 |
| Cc1cc(NC(=O)c2cccnc2)nn1C(=O)NCc1ccccc1Cl [Compound I-1-323] | 100 |

Same assay, conditions: application rate of 30 ppm in nutrient medium; 100% = all animals killed

| SMILES | efficacy (kill in %) [%] |
| --- | --- |
| Cc1cc(NC(=O)c2cccnc2)nn1-c1ccccc1Cl [Compound I-1-213] | 100 |
| Cc1cc(NC(=O)c2cccnc2)nn1-c1ccc(Cl)cc1 [Compound I-1-209] | 100 |
| CCc1nc(NC(=O)c2cccnc2)nn1-c1ccccc1 [Compound I-2-6] | 100 |
| Cc1cc(C)nc(-n2nc(NC(=O)c3cccnc3)cc2C)n1 [Compound I-1-139] | 100 |
| COCn1cnc(NC(=O)c2cccnc2)n1 [Compound I-2-18] | 80 |
| Cc1cc(N(C)C(=O)c2cccnc2)nn1CC1CC1 [Compound I-1-177] | 100 |
| Cc1cc(NC(=O)c2cccnc2)nn1S(=O)(=O)c1cccnc1 [Compound I-1-280] | 100 |
| CCN(CC)C(=O)n1nc(NC(=O)c2cccnc2)cc1C [Compound I-1-290] | 100 |
| O=C(Nc1nn(Cc2ncccn2)cc1F)c1cccnc1 [Compound I-1-267] | 100 |
| Cc1cc(NC(=O)c2cccnc2)nn1CC(F)(F)c1ccc(F)cn1 [Compound I-1-294] | 100 |
| Cc1cc(NC(=O)c2cccnc2)nn1Cc1nc2cc(Cl)ccc2o1 [Compound I-1-340] | 100 |
| Cc1nc2c(c(NC(=O)c3cncc(F)c3)nn2C)c(C)c1C [Compound I-1-57] | 100 |
| Cc1cc(NC(=O)c2cccnc2)nn1Cc1ccc(Cl)nc1 [Compound I-1-21] | 100 |
| Cc1nc(NC(=O)c2cccnc2)n[nH]1 [Compound I-2-1] | 100 |
| Cc1cc(NC(=O)c2cccnc2)nn1C(=O)NCc1ncccn1 [Compound I-1-334] | 100 |
| Cc1cc(NC(=O)c2cccnc2)nn1C(=O)NC(C)C(F)(F)F (stereo not shown) [Compound I-1-307] | 100 |
| Cc1ccc(C(=O)Nc2cc(C)n(Cc3ccccc3)n2)cn1 [Compound I-1-80] | 100 |
| Cc1noc(Cn2nc(NC(=O)c3cccnc3)cc2C)n1 [Compound I-1-284] | 100 |
| Cc1cc(NC(=O)c2cccnc2)nn1-c1ccccc1 [Compound I-1-349] | 100 |
| Cc1cc(NC(=O)c2cccnc2)nn1CS(=O)(=O)c1ncccn1 [Compound I-1-236] | 100 |
| Cc1cc(NC(=O)c2cccnc2)nn1CC(=O)Cc1ccccc1Cl [Compound I-1-247] | 100 |
| Cc1cc(NC(=O)c2cccnc2)nn1C(C)(C)C#N [Compound I-1-219] | 100 |
| Cc1cc(NC(=O)c2cccnc2)nn1Cc1ncccc1Cl [Compound I-1-37] | 100 |
| Cc1nn(-c2ncccc2Cl)nc1NC(=O)c1cccnc1 [Compound I-3-9] | 100 |
| Cc1cc(NC(=O)c2cccnc2)nn1Cc1ccc2ccccc2n1 [Compound I-1-341] | 100 |
| Cc1cc(NC(=O)c2cccnc2)nn1S(=O)(=O)N1CCC(C)CC1 [Compound I-1-162] | 100 |
| Cc1cc(NC(=O)c2cccnc2)nn1C(=O)NCc1ccc(Cl)cc1 [Compound I-1-325] | 100 |
| CSCn1nc(NC(=O)c2cccnc2)cc1C [Compound I-1-241] | 100 |
| Cc1ccc(C(=O)Nc2cc(C)n(Cc3cccc(F)c3)n2)cn1 [Compound I-1-108] | 100 |
| Cc1cc(NC(=O)c2cccnc2)nn1C(=O)NCc1ccccc1Cl [Compound I-1-323] | 100 |

Test system: not listed separately
Assay: log P determination by LC-MS in the acidic range
Type: physicochemical
Details: LC-MS in the acidic range
Source text: The LC-MS determination in the acidic range is effected at pH 2.7 using 0.1% aqueous formic acid and acetonitrile (contains 0.1% formic acid) as eluents, linear gradient from 10% acetonitrile to 95% acetonitrile. Alternatively, the determination is effected in the acidic range at pH 2.3 using 0.1% aqueous phosphoric acid and acetonitrile as eluents; linear gradient from 10% acetonitrile to 95% acetonitrile.

| SMILES | log P (acid) |
| --- | --- |
| Cc1cc(NC(=O)c2cccnc2)nn1-c1ccccc1Cl [Compound I-1-213] | 1.86 |
| Cc1cc(NC(=O)c2cccnc2)nn1-c1ccc(Cl)cc1 [Compound I-1-209] | 2.09 |
| Cc1cc(C)nc(-n2nc(NC(=O)c3cccnc3)cc2C)n1 [Compound I-1-139] | 1.6 |
| Cc1cc(N(C)C(=O)c2cccnc2)nn1CC1CC1 [Compound I-1-177] | 1.27 |
| Cc1cc(NC(=O)c2cccnc2)nn1S(=O)(=O)c1cccnc1 [Compound I-1-280] | 1.45 |
| CCN(CC)C(=O)n1nc(NC(=O)c2cccnc2)cc1C [Compound I-1-290] | 2.31 |
| O=C(Nc1nn(Cc2ncccn2)cc1F)c1cccnc1 [Compound I-1-267] | 0.42 |
| Cc1cc(NC(=O)c2cccnc2)nn1CC(F)(F)c1ccc(F)cn1 [Compound I-1-294] | 1.77 |
| Cc1cc(NC(=O)c2cccnc2)nn1Cc1nc2cc(Cl)ccc2o1 [Compound I-1-340] | 2 |
| Cc1nc2c(c(NC(=O)c3cncc(F)c3)nn2C)c(C)c1C [Compound I-1-57] | 1.6 |
| Cc1cc(NC(=O)c2cccnc2)nn1Cc1ccc(Cl)nc1 [Compound I-1-21] | 1.42 |
| Cc1cc(NC(=O)c2cccnc2)nn1C(=O)NCc1ncccn1 [Compound I-1-334] | 0.95 |
| Cc1cc(NC(=O)c2cccnc2)nn1C(=O)NC(C)C(F)(F)F (stereo not shown) [Compound I-1-307] | 1.89 |
| Cc1ccc(C(=O)Nc2cc(C)n(Cc3ccccc3)n2)cn1 [Compound I-1-80] | 1.71 |
| Cc1noc(Cn2nc(NC(=O)c3cccnc3)cc2C)n1 [Compound I-1-284] | 0.92 |
| Cc1cc(NC(=O)c2cccnc2)nn1-c1ccccc1 [Compound I-1-349] | 1.7 |
| Cc1cc(NC(=O)c2cccnc2)nn1CS(=O)(=O)c1ncccn1 [Compound I-1-236] | 0.74 |
| Cc1cc(NC(=O)c2cccnc2)nn1CC(=O)Cc1ccccc1Cl [Compound I-1-247] | 1.92 |
| Cc1cc(NC(=O)c2cccnc2)nn1C(C)(C)C#N [Compound I-1-219] | 1.31 |
| Cc1cc(NC(=O)c2cccnc2)nn1Cc1ncccc1Cl [Compound I-1-37] | 1.42 |
| Cc1cc(NC(=O)c2cccnc2)nn1Cc1ccc2ccccc2n1 [Compound I-1-341] | 1.66 |
| Cc1cc(NC(=O)c2cccnc2)nn1S(=O)(=O)N1CCC(C)CC1 [Compound I-1-162] | 2.51 |
| Cc1cc(NC(=O)c2cccnc2)nn1C(=O)NCc1ccc(Cl)cc1 [Compound I-1-325] | 2.34 |
| CSCn1nc(NC(=O)c2cccnc2)cc1C [Compound I-1-241] | 1.17 |
| Cc1ccc(C(=O)Nc2cc(C)n(Cc3cccc(F)c3)n2)cn1 [Compound I-1-108] | 1.79 |
| Cc1cc(NC(=O)c2cccnc2)nn1C(=O)NCc1ccccc1Cl [Compound I-1-323] | 2.29 |

Same assay, conditions: Table 2, compounds of the formula (I-2); acidic range pH 2.7 or pH 2.3

| SMILES | log P (acid) |
| --- | --- |
| CCc1nc(NC(=O)c2cccnc2)nn1-c1ccccc1 [Compound I-2-6] | 1.24 |
| COCn1cnc(NC(=O)c2cccnc2)n1 [Compound I-2-18] | −0.23 |
| Cc1nc(NC(=O)c2cccnc2)n[nH]1 [Compound I-2-1] | <−0.23 |

Same assay, conditions: Table 3; HPLC on reversed-phase column (C 18), 55° C., acidic range (pH 2.7 or pH 2.3)

| SMILES | log P (acid) |
| --- | --- |
| Cc1nn(-c2ncccc2Cl)nc1NC(=O)c1cccnc1 [Compound I-3-9] | 1.24 |

Same assay, conditions: pH 2.7, LC-MS in the acidic range; read-out: log P (acid)

| SMILES | chromatographic logP |
| --- | --- |
| Cc1cn(Cc2ncccn2)nc1NC(=O)c1cccnc1 [Compound I-1-136, N-[4-Methyl-1-(pyrimidin-2-ylmethyl)-1H-pyrazol-3-yl]nicotinamide] | 0.44 |

Same assay, conditions: pH 2.7, values given in the synthesis examples and NMR lists; read-out: HPLC-MS: log P

| SMILES | chromatographic logP |
| --- | --- |
| Cc1cn(Cc2ncccn2)nc1NC(=O)c1cccnc1 [Compound I-1-136, N-[4-Methyl-1-(pyrimidin-2-ylmethyl)-1H-pyrazol-3-yl]nicotinamide] | 0.44 |

Same assay, conditions: reversed-phase HPLC column (C18), pH 2.7, Table 3; HPLC on reversed-phase column (C 18), 55° C., acidic range (pH 2.7 or pH 2.3); read-out: log P (acid)

| SMILES | chromatographic logP |
| --- | --- |
| Cc1nn(-c2ccccn2)nc1NC(=O)c1cccnc1 [Compound I-3-1, N-[5-Methyl-2-(pyridin-2-yl)-2H-1,2,3-triazol-4-yl]nicotinamide] | 1.08 |

Same assay, conditions: reversed-phase HPLC column (C18), pH 2.7, Table 4; HPLC on reversed-phase column (C 18), 55° C., acidic range (pH 2.7 or pH 2.3); read-out: log P (acid)

| SMILES | chromatographic logP |
| --- | --- |
| CC(NC(=O)Cn1nnc(NC(=O)c2cccnc2)n1)c1ccccc1 (stereo not shown) [Compound I-4-6, N-(2-{2-Oxo-2-[(1-phenylethyl)amino]ethyl}-2H-tetrazol-5-yl)nicotinamide] | 1.34 |

Same assay, conditions: reversed-phase HPLC column (C18), pH 2.7, values given in the synthesis examples and NMR lists; read-out: HPLC-MS: log P

| SMILES | chromatographic logP |
| --- | --- |
| CC(NC(=O)Cn1nnc(NC(=O)c2cccnc2)n1)c1ccccc1 (stereo not shown) [Compound I-4-6, N-(2-{2-Oxo-2-[(1-phenylethyl)amino]ethyl}-2H-tetrazol-5-yl)nicotinamide] | 1.34 |
| Cc1nn(-c2ccccn2)nc1NC(=O)c1cccnc1 [Compound I-3-1, N-[5-Methyl-2-(pyridin-2-yl)-2H-1,2,3-triazol-4-yl]nicotinamide] | 1.08 |
